This passage reports Ki results from ChEMBL document CHEMBL5727535, “NK-3 receptor selective antagonist compounds, pharmaceutical composition and methods for use in NK-3 receptors mediated disorders” (2020).

This assay addresses T1, Neuromedin-K receptor (Homo sapiens, UniProt P29371).
T1 sequence (P29371 whole entry): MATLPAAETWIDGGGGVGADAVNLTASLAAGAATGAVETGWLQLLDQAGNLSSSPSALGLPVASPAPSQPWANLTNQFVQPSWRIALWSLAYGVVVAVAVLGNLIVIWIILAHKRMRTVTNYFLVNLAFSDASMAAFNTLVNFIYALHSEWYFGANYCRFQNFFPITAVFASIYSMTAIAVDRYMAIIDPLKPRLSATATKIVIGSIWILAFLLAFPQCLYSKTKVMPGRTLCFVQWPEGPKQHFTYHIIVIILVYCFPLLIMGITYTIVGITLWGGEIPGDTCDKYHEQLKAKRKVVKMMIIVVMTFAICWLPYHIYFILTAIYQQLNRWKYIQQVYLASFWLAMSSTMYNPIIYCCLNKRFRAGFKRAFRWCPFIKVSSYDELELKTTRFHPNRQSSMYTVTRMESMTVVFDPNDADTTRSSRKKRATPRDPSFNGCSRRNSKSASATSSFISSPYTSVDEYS
Nature of the assay: 3H-SB222200 Binding Competition Assay with Human NK-3 Receptor: The ability of the compounds of the invention to inhibit the binding of the NK-3 receptor selective antagonist SB222200 was assessed by an in vitro radioligand binding assay. Membranes were prepared from Chinese hamster ovary recombinant cells which express the human NK3 receptor. The membranes were incubated with 5 nM 3H-SB222200_(ARC) in a HEPES 25 mM/NaCl 0.1M/CaCl2 1 mM/MgCl2 5 Mm/BSA 0.5%/Saponin 10 μg/ml buffer at pH 7.4 and various concentrations of the compounds of the invention. The amount of tritiated SB222200 bound to the receptor was determined after filtration by the quantification of membrane associated radioactivity using the TopCount-NXT reader (Packard). Competition curves were obtained for compounds of the invention and the concentrations of compounds which displaced 50% of bound radioligand (IC50) were determined and then apparent inhibition constant Ki values were calculated by the following equation: Ki=IC50/(1+[L]/KD) where [L] is the concentration of free radioligand and KD is its dissociation constant at the receptor, derived from saturation binding experiments (Cheng and Prusoff, 1973).

As to `O=C(c1ccc(F)cc1)N1CCn2c(nnc2-c2csc(-c3ccc(Cl)cc3Cl)n2)C1`, the Ki is less than 0.5 µM. In the case of `O=C(c1ccc(-c2cccs2)cc1)N1CCn2c(nnc2-c2csc(-c3ccccc3Cl)n2)C1` it was less than 0.5 µM. As for `CC1c2nnc(-c3csc(-c4ccc(F)cc4)n3)n2CCN1C(=O)c1ccc(F)c(Cl)c1` (stereo not drawn), the Ki is less than 0.5 µM. On to `CC1c2nnc(-c3csc(-c4ccc(F)cc4)n3)n2CCN1C(=O)c1ccc(Cl)c(F)c1` (stereo not drawn), for which the Ki was less than 0.5 µM. Consider `O=C(c1ccc(F)cc1)N1CCn2c(nnc2-c2csc(-c3ccccc3Cl)n2)C1`, for which the Ki was less than 0.5 µM. For `O=C(c1ccc(-c2cccs2)cc1)N1CCn2c(nnc2-c2csc(-c3ccc(Br)cc3)n2)C1` the value was less than 0.5 µM; for `O=C(c1ccc(F)cc1)N1CCn2c(nnc2-c2csc(-c3cc(Cl)cc(Cl)c3)n2)C1`, less than 0.5 µM. Turning to `C[C@@H]1c2nnc(-c3csc(-c4ccc(Cl)cc4)n3)n2CCN1C(=O)c1ccc(F)cc1`, the Ki is less than 0.5 µM. Consider `CC1c2nnc(-c3csc(-c4ccc(F)cc4)n3)n2CCN1C(=O)c1ccc(Cl)c(Cl)c1` (stereo not drawn), for which the Ki is less than 0.5 µM. For `O=C(c1ccc(F)cc1)N1CCn2c(nnc2-c2ccc(Cl)cn2)C1` the value was less than 0.5 µM; for `O=C(c1ccc(F)cc1)N1CCn2c(nnc2-c2csc(-c3ccc(Cl)cc3)n2)C1`, less than 0.5 µM; for `O=C(c1ccc(-c2ccccc2)cc1)N1CCn2c(nnc2-c2csc(-c3ccccc3Cl)n2)C1`, less than 0.5 µM. Take `O=C(c1ccc(F)cc1)N1CCn2c(nnc2-c2csc(-c3cccc(Cl)c3)n2)C1`: the Ki is less than 0.5 µM. For `CC1c2nnc(-c3csc(-c4ccccc4Cl)n3)n2CCN1C(=O)c1ccc(F)cc1` (stereo not drawn), the Ki was less than 0.5 µM. For `O=C(c1ccc(F)cc1)N1CCn2c(nnc2-c2csc(-c3ccc(Br)cc3)n2)C1`, the Ki is less than 0.5 µM. Regarding `Cn1nc(C(=O)N2CCn3c(nnc3-c3ccccn3)C2)cc1-c1ccc(Cl)cc1`, the Ki is greater than 5 µM. In the case of `O=C(c1ccc(F)cc1)N1CCn2c(nnc2-c2csc(-c3cccc(Cl)c3Cl)n2)C1` it was less than 0.5 µM; in that of `O=C(c1ccc(-c2cccs2)cc1)N1CCn2c(nnc2-c2csc(Cc3ccc(Cl)cc3)n2)C1`, less than 0.5 µM.
